Measurements from patent publication US20020098469A1, “EXTRACORPOREAL METHODS FOR ENHANCING ANTIGEN PRESENTATION AND IMMUNE RESPONSIVENESS” (morgan ,lewis, bockius llp, priority 1996, published 2002).

What was measured:
[1] = tested on: Class I protein on the cell surface; experiment: Class I expression after 8-MOP/UVA, fluorescent antibody, mean fluorescence channel (FIG. 2); format: cell-based
Source text: Mean fluorescence channel measurements permit the quantification of the amount of Class I protein on the cell surface, as identified with a fluorescent antibody against the Class I protein.

[2] = tested on: human B lymphoblasts lacking the TAP genes or with TAP blocked by transduced ICP47; experiment: TAP dependence of the 8-MOP-induced Class I increase (FIG. 4); format: cell-based; conditions: B lymphoblasts that lacked the TAP genes or had them blocked by transduced ICP47 (both conditions)
Protocol: Next, it was determined that the 8-MOP-induced increase in surface Class I molecules is dependent on peptide transport across the endoplasmic reticulum through the transporter associated with […] (TAP) pores. […] The increased immunogenicity of 8MOP treated disease-effector cells was thus shown to involve the augmented catabolism of proteins, leading to the generation of small peptides that are then transported to Class I molecules in the endoplasmic reticulum and then on to the cell surface where they associate with the Class I molecules.

[3] = tested on: C1R human B lymphoblasts displaying B27 Class I complex; experiment: Class I MHC level of C1R cells incubated in various containers, cytofluorimeter (FIG. 5); format: cell-based; conditions: photoactivated 8-MOP in the 2410 bag (no leachable plasticizers), about 24 hours at 37° C.
Protocol: In the foregoing experiment, C1R human B lymphoblasts, cells molecularly engineered so that they display a readily studied B27 Class I protein complex, were exposed to photoactivated 8-MOP in the presence of various plastic containers. The mean fluorescence intensity was measured in a cytofluorimeter, using monoclonal antibodies specific for the B27 Class I complex.

[4] = tested on: Class I molecules on transduced C1R B cells; experiment: Binding of iodinated B27 allele-specific peptide, immunoprecipitation with antibody 4E; format: cell-based, human; conditions: transduced C1R B cells exposed to 8-MOP
Protocol: To determine if the Class I MHC molecules induced in Example 5 remained functional, i.e., could be loaded with a known B27 allele-specific peptide, iodinated peptide was added under varied conditions.

[5] = tested on: C1R B lymphoblastoid line transduced with the Class I B27 allele; experiment: Class I expression on B27-transduced C1R B lymphoblastoid line, labeled W6/32 monoclonal antibody (FIG. 3); format: cell-based, human; conditions: for impact on Class I expression: other pharmacologic agents compared with 8-MOP
Protocol: In order to evaluate the enhanced immunogenicity of 8-MOP treated CTCL cells, a series of human lymphoblast lines was derived. The C1R B lymphoblastoid line, which in its native state expresses no HLA-A or HLA-B surface Class I and only a minute amount of HLA-C molecules was transduced with the Class I B27 allele. This modified cell population, with nearly all of its surface Class I molecules being B27, was exposed to 8MOP and incubated overnight.

In the case of `COc1c2occc2cc2ccc(=O)oc12` [8-MOP, 8-methoxypsoralen], the “Class I molecule expression” value ([1]; 1 joule per cm^2 of UVA and 200 ng/ml of 8-MOP, incubation about 18 hours, versus control cells) is reported as “about doubles”, the “8-MOP induced increase in Class I molecules” value [2] is reported as “prevented” and the “Class I MHC level versus untreated controls” value [3] is reported as “more than doubled”. For the same molecule, the “allele-specific peptide bound versus untreated cell line control” value [4] was “approximately 3 fold”, the “increase in functional Class I molecules per cell” value [4] was > 10,000 functional Class I molecules per cell and the “Class I expression” value ([5]; UVA administered before the addition of 8-MOP, drug not photoactivated) was “only a minor increase”. The “time to peak levels of Class I expression after exposure” value ([5]; optimal levels of 8-MOP) was 20 h and the “increase of Class I expression over background” value ([5]; photoactivated 8-MOP, optimal levels, overnight incubation) was “approximately 3 fold”.

For `CC[C@H]1CN2CCc3cc(OC)c(OC)cc3[C@@H]2C[C@@H]1C[C@H]1NCCc2cc(OC)c(OC)cc21` [emetine], the “effect on the 8-MOP/UVA-induced increase in Class I expression” value ([1]; emetine added to 8-MOP/UVA treated cells) was “prevented”.

For TNF-α, the “impact on Class I expression” value [5] was “either no or a more limited impact”.

For `CO[C@@]12[C@H](COC(N)=O)C3=C(C(=O)C(C)=C(N)C3=O)N1C[C@@H]1N[C@@H]12` [mytomycin C], the “impact on Class I expression” value [5] was “either no or a more limited impact”.

For “γ-interferon: other pharmacologic agent compared with 8-MOP”, the “impact on Class I expression” value [5] was “either no or a more limited impact”.
